Source: PMC4879785, “GintAMT3 – a Low-Affinity Ammonium Transporter of the Arbuscular Mycorrhizal Rhizophagus irregularis” (Frontiers in Plant Science, 2016)

B1: GintAMT3 (Rhizophagus irregularis) (protein)
chain: MSETSQPSQFKEGDIAWMLTSTAFVWLMIPGVGYFYSGMARSKNALSLILFCFLCVPVVAMQWFIWGYSLSFSRTGGLFIGNLRNAFFMNVRGEPTLKAESLPEIVHAIYQGMFAAITPSLAIGAAAERARMLPLLVFIFVWSTLVYDVIACWIWSANGWFKTIEGLDFAGGTPVHIASGAAALAYCVVLGKRHGHGRDEFKPHNNVNVILGTVFLWFGWFGFNGGSAFGANTRAAMAIMVTNTAASFGGLAWMLMDYRLERKFSALGFCSGAVAGLVCITPASGYVSPPVSVLFGITGGIACNLAVKLKHILDFDDALDVFAVHAVGGVAGNTLLGIFADKEMAALNGEIIHGGAIDGHSVQLGYQIASSIAGLTYSFCISALILYVMDRIPCLKLRMEPDEEEIGTDETELGEPAYYFLDRVVASIQVQIASKTMSSPQQTQLQSIDHIHYS

Columns and labels:
GintAMT2 = target: T1, GintAMT2 (Rhizophagus intraradices, UniProt F8K9Q4); settings: starting ammonium printed as 1 mM and 2 mM (Figure 5 legend)
T1 construct: gene amt2
T1 sequence (F8K9Q4 1-470): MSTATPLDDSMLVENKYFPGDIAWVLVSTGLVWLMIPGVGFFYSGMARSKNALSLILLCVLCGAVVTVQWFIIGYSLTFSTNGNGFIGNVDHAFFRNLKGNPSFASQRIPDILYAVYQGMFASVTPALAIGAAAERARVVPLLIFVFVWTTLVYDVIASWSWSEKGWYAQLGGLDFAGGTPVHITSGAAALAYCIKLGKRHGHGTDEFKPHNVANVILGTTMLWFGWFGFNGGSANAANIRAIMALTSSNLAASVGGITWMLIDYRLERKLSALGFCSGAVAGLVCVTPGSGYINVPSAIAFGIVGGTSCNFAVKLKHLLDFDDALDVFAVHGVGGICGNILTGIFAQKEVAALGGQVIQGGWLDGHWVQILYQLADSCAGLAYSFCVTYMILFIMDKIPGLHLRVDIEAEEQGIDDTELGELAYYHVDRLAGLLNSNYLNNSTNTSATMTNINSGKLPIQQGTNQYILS

GintAMT1 = target: T2, GintAMT1 (Rhizophagus intraradices, UniProt A2Q6J0); settings: starting ammonium printed as 1 mM and 2 mM (Figure 5 legend)
T2 construct: gene AMT1
T2 sequence (A2Q6J0 1-479): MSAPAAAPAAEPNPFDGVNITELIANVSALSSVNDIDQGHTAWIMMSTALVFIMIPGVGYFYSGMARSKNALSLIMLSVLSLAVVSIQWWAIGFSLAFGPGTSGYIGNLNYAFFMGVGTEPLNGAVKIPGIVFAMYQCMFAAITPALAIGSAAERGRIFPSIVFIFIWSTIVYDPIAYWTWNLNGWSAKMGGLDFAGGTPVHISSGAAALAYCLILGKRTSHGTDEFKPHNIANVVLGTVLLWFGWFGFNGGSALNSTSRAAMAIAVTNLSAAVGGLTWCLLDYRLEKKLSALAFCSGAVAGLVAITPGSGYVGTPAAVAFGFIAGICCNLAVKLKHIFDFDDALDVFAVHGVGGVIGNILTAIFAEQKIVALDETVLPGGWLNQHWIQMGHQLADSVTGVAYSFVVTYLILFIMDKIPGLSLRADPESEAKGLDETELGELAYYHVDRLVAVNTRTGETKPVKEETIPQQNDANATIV

[1] = substrate: CN; test: cells, lysate or membranes; assay type: cell-based, Rhizophagus irregularis; settings: pH 5, 50 mM KH2PO4, 20 mM glucose, 30 °C, labelled compound, 0-15 mM substrate, Hanes-Woolf plot

Molecule | ammonium removal from medium by yeast (GintAMT2) | ammonium removal from medium by yeast (GintAMT1) | Km [1] [µM]
N [ammonium] | GintAMT2 and GintAMT3 expressing cells imported ammonium at a slower rate | Yeast cells expressing ScMEP1 and GintAMT1 took up ammonium quite rapidly. | 
B1 |  |  | 1800
